Among the data in patent publication US9732070B2, “Protein kinase C inhibitors and uses thereof” (Rigel Pharmaceuticals, Inc., priority 2009, dated 2017) are IC50 values, retold here.

For the first assay, the system named is Human primary T cells. The assay is described as follows: IL-2 ELISA, human primary T cell, anti-CD3+CD28 stimulation. Format: cell-based. To be noted: IL-2 quantified by ELISA; human primary T cells stimulated with αCD3 and αCD28, 24 hours. As to the method: Human primary T cell isolation and culture: Human primary T cells were prepared as follows. Whole blood was obtained from a healthy volunteer, mixed 1:1 with PBS, layered on to Ficoll Hypaque (Amersham Pharmacia Biotech, Piscataway, N.J., Catalog #17-1440-03) in 2:1 blood/PBS:ficoll ratio and centrifuged for 30 minutes at 4° C. at 1750 rpm. The cells at the serum: ficoll interface were recovered and washed twice with 5 volumes of PBS. These freshly isolated human peripheral blood mononuclear cells were cultured in Yssel's medium containing 40 U/mL IL2 in a flask pre-coated with 1 μg/mL αCD3 and 5 μg/mL αCD28 (Anti-Human CD3, BD Pharmingen Catalog #555336, Anti-Human CD28, Beckman Coulter Catalog #IM1376). The cells were stimulated for 3-4 days, then transferred to a fresh flask and maintained in RPMI (RPMI-1640 with L-Glutamine; Mediatech, Inc., Herndon Va., cat. #10-040-CM) with 10% FBS and 40 U/mL IL-2. The primary T-cells were then washed twice with PBS to remove the IL-2.
Primary T cell stimulation and IL2 ELISA: Human primary T cells (100,000 cells per well) were pre-incubated with or without test compound in Yssel's medium for 1 hour at 37° C. Cells were then stimulated by transferring them to round-bottom 96-well plates pre-coated with 1 μg/ml αCD3 and 5 μg/ml αCD28. For counter assay, cells were instead stimulated by adding 8× stock solutions of PMA and ionomycin in Yssels (for final concentrations of 0.5 ng/ml PMA and 0.1 uM ionomycin, both from Calbiochem). Cells were incubated at 37° C. for 24 hours before 100 μL supernatants were harvested for quantification of IL-2 by ELISA using Human IL-2 Duoset ELISA Kit from R and D Systems, Cat. # DY202E.
The term IC50 denotes the concentration that gives 50% inhibition. A lower IC50 goes with inhibition by little substance. `CN1C(C)(C)CC(Nc2nc(Nc3cc(F)cc(-n4nnn(C)c4=O)c3)ncc2F)CC1(C)C` [I-22, 1-(3-(4-(1,2,2,6,6-pentamethylpiperidin-4-ylamion)-5fluoropyrimidin-2-ylamino)-5-fluorophenyl)-4-methyl-1H-tetrazol-5(4H)-one] registered a concentration for half-maximal inhibition (IC50) of less than 500 nM.

`CC1(C)CC(Nc2nc(Nc3ccc(F)c(-n4nnn(CCF)c4=O)c3)ncc2F)CC(C)(C)N1` [I-7, 5-fluoro-n2-{4-fluoro-3-[4-(2-fluoroethyl)-1,2,3,4-tetrazol-5-one-1-yl]}phenyl-n4-(2,2,6,6-tetramethylpiperidin-4-yl)-2,4-pyrimidinediamine] came in with an IC50 of 510 to 2990 nM.

Take `CC(C)Oc1c(-n2nnn(C)c2=O)cc(Nc2ncc(F)c(NC3CC(C)(C)N(C)C(C)(C)C3)n2)cc1C(F)(F)F` [I-52, N2-(4-isopropoxy-3-(4-methyl-4,5-dihysro-5-oxo-1H-tetrazol-1-yl)-5-trifluoromethylphenyl)-5-fluoro-N4-(1,2,2,6,6-pentamethylpiperidin-4-yl)pyrimidine-2,4-diamine]: the IC50 was less than 500 nM.

The same assay, now with this note: T-cell; IL-2 quantified by ELISA; human primary T cells stimulated with αCD3 and αCD28, 24 hours.
For `Cn1nnn(-c2cc(Nc3ncc(F)c(NC4CC(C)(C)NC(C)(C)C4)n3)ccc2OC(C)(C)C(F)(F)F)c1=O` [I-19, 1-(2-(1,1,1-trifluoro-2-methylpropan-2-yloxy)-5-(4-(2,2,6,6-tetramethylpiperidin-4-ylamino)-5-fluoropyrimidin-2-ylamino)phenyl)-4-methyl-1H-tetrazol-5(4H)-one], the IC50 is less than 500 nM.

`CN1C(C)(C)CC(Nc2nc(Nc3ccc(OC(C)(C)C(F)(F)F)c(-n4nnn(C)c4=O)c3)ncc2F)CC1(C)C` [I-18, 1-(2-(1,1,1-trifluoro-2-methylpropan-2-yloxy)-5-(4-(1,2,2,6,6-pentamethylpiperidin-4-ylamino)-5-fluoropyrimidin-2-ylamino)phenyl)-4-methyl-1H-tetrazol-5(4H)-one] registered an IC50 of less than 500 nM.

Regarding `COC(=O)c1cc(Nc2ncc(F)c(NC3CC(C)(C)NC(C)(C)C3)n2)cc(-n2nnn(C)c2=O)c1C` [I-60, Methyl 5-((5-fluoro-4-((2,2,6,6-tetramethylpiperidin-4-yl)amino)-2-pyrimidinyl)amino)-2-methyl-3-(4-methyl-4,5-dihysro-5-oxo-1H-tetrazol-1-yl)benzoate], the IC50 was less than 500 nM.

In the case of `CN1C(C)(C)CC(Nc2nc(Nc3cc(-n4nnn(C)c4=O)c(C4CC4)c(C(F)(F)F)c3)ncc2F)CC1(C)C` [I-40, N2-{4-cyclopropyl-5-trifluoromethyl-[3-(4-methyl)-1,2,3,4-tetrazol-5-one-1-yl]}phenyl-5-fluoro-N4-(1,2,2,6,6-pentamethylpiperidin-4-yl)-2,4-pyrimidinediamine], the IC50 was less than 500 nM.

Compound `Cc1c(C(=O)O)cc(Nc2ncc(F)c(NC3CC(C)(C)NC(C)(C)C3)n2)cc1-n1nnn(C)c1=O` [I-61] showed an IC50 of 3000 to 25000 nM.

`COc1cc(Nc2ncc(F)c(NC3CC(C)(C)N(C)C(C)(C)C3)n2)cc(-n2nnn(C)c2=O)c1` [I-31, N2-{5-methody-[3-(4-methyl)-1,2,3,4-tetrazol-5-one-1-yl]}phenyl-5-fluoro-N4-(1,2,2,6,6-pentamethylpiperidin-4-yl)-2,4-pyrimidinediamine] registered a half-inhibitory concentration (IC50) of less than 500 nM.

Compound `CN1C(C)(C)CC(Nc2nc(Nc3ccc(C4CC4)c(-n4nnn(C)c4=O)c3)ncc2F)CC1(C)C` [I-34, N2-{4-cyclopropyl-[3-(4-methyl)-1,2,3,4-tetrazol-5-one-1-yl]}phenyl-5-fluoro-N4-(1,2,2,6,6-pentamethylpiperidin-4-yl)-2,4-pyrimidinediamine] displayed an IC50 of less than 500 nM.

In turn, `CC(C)n1nnn(-c2cc(Nc3ncc(F)c(NC4CC(C)(C)N(C)C(C)(C)C4)n3)ccc2F)c1=O` [I-5, 5-fluoro-n2-{4-fluoro-[3-(4-isopropyl)-1,2,3,4-tetrazol-5-one-1-yl]}phenyl-n4-(1,2,2,6,6-pentamethylpiperidin-4-yl)-2,4-pyrimidinediamine] showed an IC50 of 510 to 2990 nM.

As for `Cc1c(-n2nnn(C)c2=O)cc(Nc2ncc(F)c(NC3CC(C)(C)N(C)C(C)(C)C3)n2)cc1C(F)(F)F` [I-54, N2-(4-methyl-3-(4-methyl-4,5-dihysro-5-oxo-1H-tetrazol-1-yl)-5-trifluoromethylphenyl)-5-fluoro-N4-(1,2,2,6,6-pentamethylpiperidin-4-yl)pyrimidine-2,4-diamine], the IC50 is less than 500 nM.

Turning to `Cn1nnn(-c2cc(F)cc(Nc3ncc(F)c(NC4CC(C)(C)NC(C)(C)C4)n3)c2)c1=O` [I-23, 1-(3-(4-(2,2,6,6-tetramethylpiperidin-4-ylamino)-5-fluoropyrimidin-2-ylamino)-5-fluorophenyl)-4-methyl-1H-tetrazol-5(4H)-one], the IC50 was less than 500 nM.

`Cn1nnn(-c2cc(C#N)cc(Nc3ncc(F)c(NC4CC(C)(C)NC(C)(C)C4)n3)c2)c1=O` [I-50, N2-(5-cyano-3-(4-methyl-4,5-dihysro-5-oxo-1H-tetrazol-1-yl)phenyl)-5-fluoro-N4-(2,2,6,6-tetramethylpiperidin-4-yl)pyrimidine-2,4-diamine] registered an IC50 of less than 500 nM.

In turn, `CC(C)n1nnn(-c2cc(Nc3ncc(F)c(NC4CC(C)(C)NC(C)(C)C4)n3)ccc2F)c1=O` [I-6] gave a concentration for half-maximal inhibition (IC50) of 510 to 2990 nM.

`Cn1nnn(-c2cc(Nc3ncc(F)c(NC4CC(C)(C)NC(C)(C)C4)n3)c(F)cc2Cl)c1=O` [I-68] showed an IC50 of less than 500 nM.

In turn, `CN1C(C)(C)CC(Nc2nc(Nc3ccc(Cl)c(-n4nnn(C)c4=O)c3)ncc2F)CC1(C)C` [I-29, N2-{4-chloro-[3-(4-methyl)-1,2,3,4-tetrazol-5-one-1-yl]}phenyl-5-fluoro-N4-(1,2,2,6,6-pentamethylpiperidin-4-yl)-2,4-pyrimidinediamine] registered an IC50 of less than 500 nM.

Turning to `CN1C(C)(C)CC(Nc2nc(Nc3ccc(F)c(-n4nn[nH]c4=O)c3)ncc2F)CC1(C)C` [I-1, 5-fluoro-n2-{4-fluoro-[3-(4-h)-1,2,3,4-tetrazol-5-one-1-yl]}phenyl-n4-(1,2,2,6,6-pentamethylpiperidin-4-yl)-2,4-pyrimidinediamine], the IC50 was in the range of 3000 to 25000 nM.

For the compound `CN1C(C)(C)CC(Nc2nc(Nc3ccc(OC4CCOCC4)c(-n4nnn(C)c4=O)c3)ncc2F)CC1(C)C` [I-26], the IC50 is less than 500 nM.

`CN1C(C)(C)CC(Nc2nc(Nc3ccc(F)c(-n4nnn(C)c4=O)c3F)ncc2F)CC1(C)C` [I-66, N2-(2,4-difluoro-3-(4-methyl-4,5-dihydro-5-oxo-1H-tetrazol-1-yl)phenyl)-5-fluoro-N4-(1,2,2,6,6-pentamethylpiperidin-4-yl)pyrimidine-2,4-diamine]: the IC50 is 3000 to 25000 nM.

With `CN1C(C)(C)CC(Nc2nc(Nc3ccc(F)c(-n4nnn(C)c4=O)c3)ncc2F)CC1(C)C` [I-3, 5-fluoro-n2-{4-fluoro-[3-(4-methyl)-1,2,3,4-tetrazol-5-one-1-yl]}phenyl-n4-(1,2,2,6,6-pentamethylpiperidin-4-yl)-2,4-pyrimidinediamine], the half-maximal inhibitory concentration (IC50) was less than 500 nM.

As for `Cn1nnn(-c2cc(Cl)cc(Nc3ncc(F)c(NC4CC(C)(C)NC(C)(C)C4)n3)c2)c1=O` [I-37, N2-{5-chloro-[3-(4-methyl)-1,2,3,4-tetrazol-5-one-1-yl]}phenyl-5-fluoro-N4-(2,2,6,6-tetramethylpiperidin-4-yl)-2,4-pyrimidinediamine], the IC50 lay within 510 to 2990 nM.

Compound `CN1C(C)(C)CC(Nc2nc(Nc3cc(C#N)cc(-n4nnn(C)c4=O)c3)ncc2F)CC1(C)C` [I-49] gave an IC50 of less than 500 nM.

In turn, `CC1(C)CC(Nc2nc(Nc3ccc(F)c(-n4nn[nH]c4=O)c3)ncc2F)CC(C)(C)N1` [I-2, 5-fluoro-n2-{4-fluoro-[3-(4-h)-1,2,3,4-tetrazol-5-one-1-yl]}phenyl-n4-(2,2,6,6-tetramethylpiperidin-4-yl)-2,4-pyrimidinediamine] returned a concentration for half-maximal inhibition (IC50) of more than 25000 nM.

`Cc1c(-n2nnn(C)c2=O)cc(Nc2ncc(F)c(NC3CC(C)(C)NC(C)(C)C3)n2)cc1C(F)(F)F` [I-53, N2-(4-methyl-3-(4-methyl-4,5-dihydro-5-oxo-1H-tetrazol-1-yl)-5-trifluoromethylphenyl)-5-fluoro-N4-(2,2,6,6-tetramethylpiperidin-4-yl)pyrimidine-2,5-diamine] showed an IC50 of less than 500 nM.

`Cn1nnn(-c2cccc(Nc3ncc(F)c(NC4CC(C)(C)NC(C)(C)C4)n3)c2)c1=O` [I-13] displayed an IC50 of 510 to 2990 nM.

Compound `CN1C(C)(C)CC(Nc2nc(Nc3cc(OC4COC4)cc(-n4nnn(C)c4=O)c3)ncc2F)CC1(C)C` [I-24, 1-(3-(4-(1,2,2,6,6-pentamethylpiperidin-4-ylamino)-5-fluoropyrimidin-2-ylamino)-5-(oxetan-3-yloxy)phenyl)-4-methyl-1H-tetrazol-5(4H)-one] gave an IC50 of less than 500 nM.

The compound `Cn1nnn(-c2cc(Nc3ncc(F)c(NC4CC(C)(C)NC(C)(C)C4)n3)c(F)cc2C2CC2)c1=O` [I-14] had an IC50 of less than 500 nM.
